From patent US12404283B2, “c-MYC mRNA translation modulators and uses thereof in the treatment of cancer” (Anima Biotech Inc., priority 2022, dated 2025)

system: c-Myc; test: c-Myc immunofluorescence assay; type: cell-based, human; settings: A549 cells, 24 hours treatment, anti-c-Myc immunofluorescence
How it was run: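 A549 cells grown 48 h, exposed 24 h to rising compound concentrations, then fixed, permeabilised and stained for c-Myc plus DAPI. Nuclear-segmented c-Myc fluorescence quantified by high-content imaging at 20×; EC50 from logistic dose–response fits.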

| SMILES | Myc Efficacy (−LogEC50) |
| --- | --- |
| CNC(=O)c1ccc(-c2cn3c(n2)sc2cc(C(=O)NCCCN4CC5CC4CN5C)ccc23)cc1 (stereo not drawn) [compound 249, N-(3-(5-methyl-2,5-diazabicyclo[2.2.1]heptan-2-yl)propyl)-2-(4-(methylcarbamoyl)phenyl) benzo[d]imidazo[2,1-b]thiazole-7-carboxamide] | − (− ≤3) |
| Cc1cccc(-c2cn3c(n2)sc2cc(C(=O)NCCCN4CCCC4)ccc23)c1 [compound 149, N-(3-(pyrrolidin-1-yl)propyl)-2-(m-tolyl)benzo[d]imidazo[2,1-b]thiazole-7-carboxamide] | ++ (++ ≥5 and <6) |
| CCN(CC)CCCNC(=O)c1ccc2c(c1)sc1nc(-c3ccc([C@@H](NC)C(F)(F)F)cc3)cn12 [compound 293, (R)-N-(3-(diethylamino)propyl)-2-(4-(2,2,2-trifluoro-1-(methylamino)ethyl)phenyl) benzo[d]imidazo[2,1-b]thiazole-7-carboxamide] | ++ (++ ≥5 and <6) |
| CNC(=O)c1ccc(-c2cn3c(n2)sc2cc(C(=O)N[C@H]4CN5CCC4CC5)ccc23)cc1 [compound 231, (R)-2-(4-(methylcarbamoyl)phenyl)-N-(quinuelidin-3-yl)benzo[d]imidazo[2,1-b]thiazole-7-carboxamide] | − (− ≤3) |
| O=C(c1ccc2c(c1)sc1nc(-c3ccc(F)cc3)cn12)N1CCCCCC1 [compound 104, azepan-1-yl(2-(4-fluorophenyl)benzo[d]imidazo[2,1-b]thiazol-7-yl)methanone] | + (+ >3 and <5) |
| CNC(=O)c1ccc(-c2cn3c(n2)sc2cc(C(=O)NC4CCCC(N)C4)ccc23)cc1 (stereo not drawn) [compound 270, N-(3-aminocyclohexyl)-2-(4-(methylcarbamoyl)phenyl) benzo[d]imidazo[2,1-b]thiazole-7-carboxamide] | + (+ >3 and <5) |
| O=C(NC1CCOCC1)c1ccc2c(c1)sc1nc(-c3ccc([C@H]4C[C@@H](O)CN4)cc3F)cn12 (relative stereo) [Compound 533, 2-(2-fluoro-4-((cis)-4-hydroxypyrrolidin-2-yl)phenyl)-N-(tetrahydro-2H-pyran-4-yl)benzo[d]imidazo[2,1-b]thiazole-7-carboxamide] | +++ (+++ ≥6) |
| O=C(NCCCN1CCC(F)CC1)c1ccc2c(c1)sc1nc(-c3ccc(C4CCCN4)c(F)c3)cn12 (stereo not drawn) [Compound 484, 2-(3-fluoro-4-(pyrrolidin-2-yl)phenyl)-N-(3-(4-fluoropiperidin-1-yl)propyl)benzo[d]imidazo[2,1-b]thiazole-7-carboxamide] | +++ (+++ ≥6) |
| Cc1cccc(-c2cn3c(n2)sc2cc(NC(=O)C4CCNCC4)ccc23)c1 [compound 168, N-(2-(m-tolyl)benzo[d]imidazo[2,1-b]thiazol-7-yl)piperidine-4-carboxamide] | ++ (++ ≥5 and <6) |
| O=C(NCCCN1CCCCC1)c1ccc2c(c1)sc1nc(-c3ccc(C4COC4)cc3)cn12 [compound 315, 2-(4-(oxetan-3-yl)phenyl)-N-(3-(piperidin-1-yl)propyl)benzo[d]imidazo [2,1-b]thiazole-7-carboxamide] | ++ (++ ≥5 and <6) |
| CNC(=O)c1ccc(-c2cn3c(n2)sc2cc(C(=O)NCC4(O)COC4)ccc23)cc1 [compound 195, N-((3-hydroxyoxetan-3-yl)methyl)-2-(4-(methylcarbamoyl)phenyl) benzo[d]imidazo[2,1-b]thiazole-7-carboxamide] | − (− ≤3) |
| CCN(CC)CCCNC(=O)c1ccc2c(c1)sc1nc(-c3cccc(C(=O)NC)c3)cn12 [compound 167, N-(3-(diethylamino)propyl)-2-(3-(methylcarbamoyl)phenyl) benzo[d]imidazo[2,1-b]thiazole-7-carboxamide] | + (+ >3 and <5) |
| CNC(=O)c1ccc(-c2cn3c(n2)sc2cc(C(=O)N[C@H]4C[C@H](NC)C4)ccc23)cc1 [compound 247, N-((1r,3r)-3-(methylamino)cyclobutyl)-2-(4-(methylcarbamoyl)phenyl) benzo[d]imidazo[2,1-b] thiazole-7-carboxamide] | − (− ≤3) |
| Cc1ccc(-c2cn3c(n2)sc2cc(C(=O)NCCCN)ccc23)cc1 [compound 115, N-(3-aminopropyl)-2-(p-tolyl)benzo[d]imidazo[2,1-b]thiazole-7-carboxamide] | + (+ >3 and <5) |
| CNC(=O)c1ccc(-c2cn3c(n2)sc2cc(C(=O)NCC4(N)CC4)ccc23)cc1 [compound 251, N-((1-aminocyclopropyl)methyl)-2-(4-(methylcarbamoyl)phenyl) benzo[d]imidazo[2,1-b]thiazole-7-carboxamide] | − (− ≤3) |
| NC(=O)c1ccc2c(c1)sc1nc(-c3ccc(C4CCNC4)cc3F)cn12 (stereo not drawn) [Compound 511, 2-(2-fluoro-4-(pyrrolidin-3-yl)phenyl)benzo[d]imidazo[2,1-b]thiazole-7-carboxamide] | +++ (+++ ≥6) |
| O=C(NCCCN1CCCCC1)c1ccc2c(c1)sc1nc(-c3ccc(Cl)cc3)cn12 [compound 132, 2-(4-chlorophenyl)-N-(3-(piperidin-1-yl)propyl) benzo[d]imidazo[2,1-b]thiazole-7-carboxamide] | ++ (++ ≥5 and <6) |
| O=C(NCCCN1CCC(F)CC1)c1ccc2c(c1)sc1nc(-c3ccc(-c4nc[nH]n4)cc3F)cn12 [Compound 483, 2-(2-fluoro-4-(1H-1,2,4-triazol-3-yl)phenyl)-N-(3-(4-fluoropiperidin-1-yl)propyl)benzo[d]imidazo[2,1-b]thiazole-7-carboxamide] | +++ (+++ ≥6) |
| CNC(=O)c1ccc(-c2cn3c(n2)sc2cc(C(=O)NCCCn4ccnc4)ccc23)cc1 [compound 235, N-(3-(1H-imidazol-1-yl)propyl)-2-(4-(methylcarbamoyl)phenyl) benzo[d]imidazo[2,1-b]thiazole-7-carboxamide] | + (+ >3 and <5) |
| C#CCCC1(CCN(CC)CCCNC(=O)c2ccc3c(c2)sc2nc(-c4ccc(C(=O)NC)cc4)cn23)N=N1 [compound 323, N-(3-((2-(3-(but-3-yn-1-yl)-3H-diazirin-3-yl)ethyl)(ethyl)amino)propyl)-2-(4-(methylcarbamoyl)phenyl) benzo[d]imidazo[2,1-b]thiazole-7-carboxamide] | +++ (+++ ≥6) |
| CCN(CC)CCCN(C)C(=O)c1ccc2c(c1)sc1nc(-c3ccc(C(=O)NC)cc3)cn12 [compound 180, N-(3-(diethylamino)propyl)-N-methyl-2-(4-(methylcarbamoyl)phenyl) benzo[d]imidazo[2,1-b]thiazole-7-carboxamide] | + (+ >3 and <5) |
| CN1CC[C@@H](NC(=O)c2ccc3c(c2)sc2nc(-c4ccc([C@@H]5CCCN5)cc4F)cn23)[C@@H](F)C1 [compound 526, N-((3S,4R)-3-fluoro-1-methylpiperidin-4-yl)-2-(2-fluoro-4-(pyrrolidin-2-yl)phenyl)benzo[d]imidazo[2,1-b]thiazole-7-carboxamide] | ++ (++ ≥5 and <6) |
| O=C(NCCCN1CCCCC1)c1ccc2c(c1)sc1nc(-c3ccc(CNC4CC4)cc3F)nn12 [compound 396, 2-(4-((cyclopropylamino)methyl)-2-fluorophenyl)-N-(3-(piperidin-1-yl)propyl)benzo[4,5]thiazolo [3,2-b][1,2,4]triazole-6-carboxamide] | ++ (++ ≥5 and <6) |
| CNC(=O)c1ccc(-c2cn3c(n2)sc2cc(C(=O)N[C@H]4CCN(C)C4)ccc23)cc1 [compound 225, (S)-2-(4-(methylcarbamoyl)phenyl)-N-(1-methylpyrrolidin-3-yl)benzo[d]imidazo[2,1-b]thiazole-7-carboxamide] | + (+ >3 and <5) |
| CCN(CC)CCCNC(=O)c1ccc2c(c1)sc1nc(-c3cc(C)ccn3)cn12 [compound 194, N-(3-(diethylamino)propyl)-2-(4-methylpyridin-2-yl)benzo[d]imidazo[2,1-b]thiazole-7-carboxamide] | + (+ >3 and <5) |
| CNC(=O)c1ccc(-c2cn3c(n2)sc2cc(C(=O)NCC4CC5(CNC5)C4)ccc23)cc1 [compound 272, N-((2-azaspiro[3.3]heptan-6-yl)methyl)-2-(4-(methylcarbamoyl)phenyl) benzo[d]imidazo[2,1-b]thiazole-7-carboxamide] | − (− ≤3) |
| CN1CCC(NC(=O)c2ccc3c(c2)sc2nc(-c4ccc(C5(O)CCNCC5)cc4F)cn23)CC1 [compound 528, 2-(2-fluoro-4-(4-hydroxypiperidin-4-yl)phenyl)-N-(1-methylpiperidin-4-yl)benzo[d]imidazo[2,1-b]thiazole-7-carboxamide] | +++ (+++ ≥6) |
| CNC(=O)c1ccc(-c2cn3c(n2)sc2cc(C(=O)NC(C)Cn4cccn4)ccc23)cc1 (stereo not drawn) [compound 221, N-(1-(1H-pyrazol-1-yl)propan-2-yl)-2-(4-(methylcarbamoyl)phenyl) benzo[d]imidazo[2,1-b]thiazole-7-carboxamide] | + (+ >3 and <5) |
| CN1CCC[C@@H](NC(=O)c2ccc3c(c2)sc2nc(-c4ccc(C5CCCN5)cc4F)cn23)C1 (stereo partly drawn) [Compound 491R, 2-(2-fluoro-4-(pyrrolidin-2-yl)phenyl)-N—((R)-1-methylpiperidin-3-yl)benzo[d]imidazo[2,1-b]thiazole-7-carboxamide] | +++ (+++ ≥6) |
| O=C1CC[C@@H](c2ccc(-c3cn4c(n3)sc3cc(C(=O)NCCCN5CCC(F)CC5)ccc34)c(F)c2)N1 [Compound 432S, (S)-2-(2-fluoro-4-(5-oxopyrrolidin-2-yl)phenyl)-N-(3-(4-fluoropiperidin-1-yl)propyl)benzo[d]imidazo[2,1-b]thiazole-7-carboxamide] | +++ (+++ ≥6) |
